Measurements: US12022830B2, “Formulations of metal and ascorbic acid complexes, their obtaining and use” (INTERMAG SP. Z O.O., priority 2017, dated 2024)

Legend:
[1] = system: diseases affecting the plant spikes; assay: Vanadyl ascorbate on wheat of Figura type, diseases affecting the plant spikes; assay type: in vivo; conditions: initial studies, analogous to the titanium complex
Excerpt: In the case of diseases attacking spikes, on the control combination, infestation by Cladosporium herbarum at 20%, by Septoria nodorum at 10% and by Gibberella avenacea at 10% were found. On sprayed plants, infestations were 1%, 1% and 0% respectively.

[2] = system: fusarium foot and root rot; assay: Fusarium foot and root rot on wheat; assay type: in vivo; conditions: wheat of Figura type, initial studies, analogous to the titanium complex
[3] = system: Radish (Raphanus sativus) of Ronda type; assay: Vanadyl ascorbate in cultivation of radish; assay type: in vivo; conditions: foliar twice, 0.004% V, total 20 g V/ha
Experimental: Radish (Raphanus sativus) of Ronda type was cultivated in a plastic tunnel in a peat substrate. Vanadyl ascorbate at a 1:2 molar ratio of V:Asc (VO(C6H7O6)2.2H2O) was applied in the form of foliar spraying twice during the entire cultivation, vanadium concentration in the working liquid was 0.004% V. In two applications, the total vanadium dose per hectare was 20 g V/ha. The experiment was performed in a random block system, combinations were drawn in 4 blocks. There were 20 plants for each combination.
Foliar application of vanadyl ascorbate VO(C6H7O6)2.2H2O has increased the mass of radish root by 12% compared to the control plants. […] Furthermore, in vanadium treated plants, the content of flavonoids responsible for protecting plant cells from oxidative stress, which is caused, among others, by through drought, has increased almost twice as compared to the control.

[4] = system: celery (Apium graveolens); assay: Vanadyl ascorbate in cultivation of celery; assay type: in vivo; conditions: for root mass increase compared to plants from the control object: celery; for Chlorophyll / Dry mass of leaves / Dry mass of root / Flavonoids / Mass of celery leaves / Mass of celery root: sprayed three times
Experimental: Cultivation of celery (Apium graveolens) was carried out in a plastic tunnel in pots with a capacity of 3 l filled with peat substrate. Vanadyl ascorbate at a 1:2 molar ratio of V:Asc (VO(C6H7O6)2.2H2O) was applied three times during the entire cultivation in BBCH phases: 4-16 (4-6 leaves), 19-40 (10 and more leaves) and 42-44 (root development) in the form of fine-droplet spraying. Two vanadium doses of 5 g V/ha (0.001%) and 10 g V/ha (0.002%) were used. The experiment was performed in a random block system, combinations were drawn in 4 blocks. There were 20 celery plants for each combination.
The mass of celery leaves has been increased both by the application of vanadium in the amount of 5 g and 10 g/ha. […] For a smaller dose, root mass has increased by 23%, while for a dose of 10 g V/ha by 11% compared to plants from the control object. A dose of 5 g V/ha positively influenced the quality parameters of celery, the dry mass of leaves, the content of chlorophyll and flavonoids have increased. However, a dose of 10 g V/ha contributed to the increase in dry mass of leaves and to the increase in content of flavonoids. The results of this experiment indicate a biostimulatory effect of low doses of vanadium on the utility yield increase of vegetable plants and its qualitative parameters.

[5] = Study of solution stability for a given complex; assay type: physicochemical; conditions: complexes in the form of solutions
iceberg lettuce = assay: Vanadyl ascorbate in cultivation of iceberg lettuce, head mass, chlorophyll, flavonoids, nutrients; assay type: in vivo, Lactuca sativa; conditions: foliar twice, total 10 g V/ha
Excerpt: Iceberg cabbage lettuce (Lactuca sativa) of Rubette type was cultivated in a plastic tunnel in pots with a capacity of 3 l filled with a peat substrate. Titanil ascorbate at a 1:2 molar ratio of Ti: Asc (TiO(C6H7O6)2.2H2O) and liquid titanil ascorbate at a 1.5:1 molar ratio of (obtained in situ—according to the method of patent specification PL 163688 or PL 214628) were applied in a foliar manner twice during the entire cultivation, the concentration of titanium in the working liquid for both formulations was 0.00085% Ti. In two applications, the total titanium dose per hectare was 3.4 g Ti/ha. The experiment was performed in a random block system, combinations were drawn in 4 blocks. There were 20 lettuce plants for each combination.
The experiment was performed analogously to the titanium complex at a 1:2 or 1.5:1 (Example 20) molar ratio of Ti:ascorbic acid. VO(C6H7O6)2.2H2O was used in the form of foliar spraying twice, vanadium concentration in the working liquid was 0.001% V. In two applications, the total micronutrient dose per hectare was 10 g V/ha.
Foliar application of VO(C6H7O6)2.2H2O increased the mass of the lettuce head by 14% compared to the control. Furthermore, vanadium ascorbate at a 1:2 molar ratio of V:Asc increased the chlorophyll content. Also, differences were found in the level of flavonoid accumulation between the control object and the combination treated with VO(C6H7O6)2.2H2O.

O.O.O=C1OC(C(O)CO)C([O-])=C1O.O=C1OC(C(O)CO)C([O-])=C1O.[O]=[V+2] (stereo not drawn) [VO(C6H7O6)2•2H2O, vanadyl ascorbate]
effect on the elimination of symptoms caused by diseases affecting the plant spikes [1]: positive effect
effect on the elimination of symptoms caused by fusarium foot and root rot [2]: positive effect
Chlorophyll [3]: 19.1 μg/cm^2
Dry mass of root [3]: 4.8%
Flavonoids [3]: 0.88 μg/cm^2
Mass of radish root [3]: 19.5 g
increase of the content of flavonoids compared to the control [3]: almost twice
increase of the mass of radish root compared to the control plants [3]: 12%
root mass increase compared to plants from the control object ([4]; dose of 5 g V/ha): 23%
root mass increase compared to plants from the control object ([4]; dose of 10 g V/ha): 11%
Chlorophyll ([4]; dose of 5 g V/ha (0.001%)): 35.0 μg/cm^2
Dry mass of leaves ([4]; dose of 5 g V/ha (0.001%)): 8.9%
Dry mass of root ([4]; dose of 5 g V/ha (0.001%)): 2.9%
Flavonoids ([4]; dose of 5 g V/ha (0.001%)): 0.77 μg/cm^2
Mass of celery leaves ([4]; dose of 5 g V/ha (0.001%)): 320.3 g
Mass of celery root ([4]; dose of 5 g V/ha (0.001%)): 90.7 g
Chlorophyll ([4]; dose of 10 g V/ha (0.002%)): 32.0 μg/cm^2
Dry mass of leaves ([4]; dose of 10 g V/ha (0.002%)): 9.5%
Dry mass of root ([4]; dose of 10 g V/ha (0.002%)): 3.1%
Flavonoids ([4]; dose of 10 g V/ha (0.002%)): 0.72 μg/cm^2
Mass of celery leaves ([4]; dose of 10 g V/ha (0.002%)): 317.3 g
Mass of celery root ([4]; dose of 10 g V/ha (0.002%)): 78.5 g
stability of the solution among the complexes [5]: most stable
Chlorophyll (iceberg lettuce; iceberg lettuce, 0.001% V): 29.6 μg/cm^2
Dry mass (iceberg lettuce; iceberg lettuce, 0.001% V): 6.85%
Flavonoids (iceberg lettuce; iceberg lettuce, 0.001% V): 0.29 μg/cm^2
Mass of lettuce head (iceberg lettuce; iceberg lettuce, 0.001% V): 78.2 g
increase of the mass of the lettuce head compared to the control (iceberg lettuce; iceberg lettuce, 0.001% V): 14%
Ca content (iceberg lettuce; lettuce, g/kg d.c.): 18.17 g/kg
K content (iceberg lettuce; lettuce, g/kg d.c.): 21.84 g/kg
Mg content (iceberg lettuce; lettuce, g/kg d.c.): 4.92 g/kg
P content (iceberg lettuce; lettuce, g/kg d.c.): 3.42 g/kg
S content (iceberg lettuce; lettuce, g/kg d.c.): 2.69 g/kg
